Activity calls are given as the source filed them. How the calls were made is not given here.
Tested on: GENE-TOX genotoxicity assays, various organisms and cells
Test: GENE-TOX mutagenicity studies
Conditions: for call: Assay Type: In vivo carcinogenicity studies
[1] = Species/Cell Type: Escherichia coli polA (W3110 vs P3478), Assay Type: Rec-assay, DNA effects (bacterial DNA repair), Assay Code: RE2-, Evaluation Type: Evaluation A (Pre-1980)
[2] = Species/Cell Type: Escherichia coli polA (W3119 vs P3478), Assay Type: Rec-assay, DNA effects (bacterial DNA repair), Assay Code: RE1T, Evaluation Type: Evaluation A (Pre-1980)
[3] = Species/Cell Type: Mouse embryo (AKR/ME) cells, Assay Type: Cell transformation, Assay Code: CTK-, Evaluation Type: Evaluation A (Pre-1980)
[4] = Species/Cell Type: Nonhuman, Assay Type: Sister-chromatid exchange (SCE) in vitro, Assay Code: SC2+D, Dose Response: With dose response, Evaluation Type: Evaluation B (Post-1980)
[5] = Species/Cell Type: Nonhuman, Assay Code: CCG+, Evaluation Type: Evaluation A (Pre-1980)

For `c1ccc2cc3ccccc3cc2c1`, the mutagenic call [1] was “inactive; negative”, the mutagenic call [2] was “no conclusion” and the mutagenic call (Species/Cell Type: Fischer rat embryo (RLV/1706) cells, Assay Type: Cell transformation, viral enhanced, Assay Code: CTRT, Evaluation Type: Evaluation A (Pre-1980)) was “no conclusion”. The mutagenic call (Species/Cell Type: Human diploid fibroblasts, Assay Type: Unscheduled DNA synthesis (UDS) in vitro, DNA effects, Assay Code: UDH-*, Activation: With metabolic activation, Evaluation Type: Evaluation A (Pre-1980)) was “inactive; negative”, the mutagenic call (Species/Cell Type: Mammalian polychromatic erythrocytes, Assay Type: Micronucleus test, chromosome aberrations, Assay Code: MNTT, Evaluation Type: Evaluation A (Pre-1980)) was “no conclusion” and the mutagenic call (Species/Cell Type: Mouse (BALB/c-3T3) cells, Assay Type: Cell transformation, Assay Code: CTB-, Evaluation Type: Evaluation A (Pre-1980)) was “inactive; negative”. The mutagenic call [3] was “inactive; negative”, the mutagenic call (Species/Cell Type: Mouse, Sex: Male, Assay Type: Sperm morphology, Assay Code: SPI-, Evaluation Type: Evaluation A (Pre-1980)) was “inactive; negative” and the mutagenic call (Species/Cell Type: Nonhuman, Assay Type: Chromosome aberrations in vitro, Assay Code: CY&-, Evaluation Type: Evaluation A (Pre-1980)) was “inactive; negative”. For the same molecule, the call (Species/Cell Type: Nonhuman, Assay Code: CCGT, Evaluation Type: Evaluation A (Pre-1980)) was “no conclusion”, the mutagenic call [4] was “active; positive” and the mutagenic call (Species/Cell Type: Nonhuman, Assay Type: Sister-chromatid exchange (SCE) in vitro, Assay Code: SC2T, Evaluation Type: Evaluation A (Pre-1980)) was “no conclusion”. For the same molecule, the mutagenic call (Species/Cell Type: Nonhuman, Assay Type: Sister-chromatid exchange (SCE) in vivo, Assay Code: SC3-, Evaluation Type: Evaluation A (Pre-1980)) was “inactive; negative”, the mutagenic call (Species/Cell Type: Nonhuman, Assay Type: Sister-chromatid exchange (SCE) in vivo, Assay Code: SC3T, Evaluation Type: Evaluation B (Post-1980)) was “no conclusion” and the mutagenic call (Species/Cell Type: Rat primary hepatocytes, Assay Type: Unscheduled DNA synthesis (UDS) in vitro, DNA effects, Assay Code: UDP-, Evaluation Type: Evaluation A (Pre-1980)) was “inactive; negative”. For the same molecule, the mutagenic call (Species/Cell Type: Saccharomyces cerevisiae, Assay Type: Mitotic recombination or gene conversion, Assay Code: YEH-, Evaluation Type: Evaluation A (Pre-1980)) was “inactive; negative”, the mutagenic call (Species/Cell Type: Salmonella typhimurium (one or more of the five standard strains: TA98, TA100, TA1535, TA1537, and TA1538), Assay Type: Histidine reverse gene mutation, Ames assay, Assay Code: SAL-, Evaluation Type: Evaluation A (Pre-1980)) was “inactive; negative” and the mutagenic call (Species/Cell Type: Salmonella typhimurium, Assay Type: Forward and reverse gene mutation, host-mediated assay, Assay Code: HMAT, Evaluation Type: Evaluation A (Pre-1980)) was “no conclusion”. The mutagenic call (Species/Cell Type: Syrian hamster embryo (SHE) cells, Assay Type: Cell transformation, clonal assay, Assay Code: CTC-, Evaluation Type: Evaluation A (Pre-1980)) was “inactive; negative”.

In the case of `Cc1cccc(N=Nc2ccc(N(C)C)cc2)c1`, the mutagenic call (Species/Cell Type: Drosophila melanogaster, Assay Type: Sex-linked recessive lethal gene mutation, Assay Code: SRLT, Evaluation Type: Evaluation A (Pre-1980)) is reported as “no conclusion”, the mutagenic call [1] is reported as “inactive; negative” and the mutagenic call [2] is reported as “no conclusion”. The mutagenic call (Species/Cell Type: Fischer rat embryo (RLV/1706) cells, Assay Type: Cell transformation, viral enhanced, Assay Code: CTR+, Evaluation Type: Evaluation A (Pre-1980)) was “active; positive”, the mutagenic call (Species/Cell Type: Human diploid fibroblasts, Assay Type: Unscheduled DNA synthesis (UDS) in vitro, DNA effects, Assay Code: UDH-, Evaluation Type: Evaluation A (Pre-1980)) was “inactive; negative” and the mutagenic call [3] was “inactive; negative”. The mutagenic call (Species/Cell Type: Neurospora crassa, Assay Type: Forward gene mutation, Assay Code: NEF+, Evaluation Type: Evaluation A (Pre-1980)) was “active; positive”, the call [5] was “active; positive” and the mutagenic call [4] was “active; positive”. The mutagenic call (Species/Cell Type: Nonhuman, Assay Type: Sister-chromatid exchange (SCE) in vivo, Assay Code: SC3+, Evaluation Type: Evaluation B (Post-1980)) was “active; positive”, the mutagenic call (Species/Cell Type: Rat primary hepatocytes, Assay Type: Unscheduled DNA synthesis (UDS) in vitro, DNA effects, Assay Code: UDP+D, Dose Response: With dose response, Evaluation Type: Evaluation A (Pre-1980)) was “active; positive” and the mutagenic call (Species/Cell Type: Saccharomyces cerevisiae, Assay Type: Mitotic recombination or gene conversion, Assay Code: YEH+*, Activation: With metabolic activation, Evaluation Type: Evaluation A (Pre-1980)) was “active; positive”. For the same molecule, the mutagenic call (Species/Cell Type: Salmonella typhimurium, Assay Type: Forward and reverse gene mutation, host-mediated assay, Assay Code: HMA-, Evaluation Type: Evaluation A (Pre-1980)) was “inactive; negative” and the mutagenic call (Species/Cell Type: Syrian hamster embryo (SHE) cells, Assay Type: Cell transformation, clonal assay, Assay Code: CTCT, Evaluation Type: Evaluation A (Pre-1980)) was “no conclusion”.

With `Nc1ccc(N=Nc2ccc(-c3ccc(N=Nc4c(S(=O)(=O)O)cc5c(c4N)C(=O)/C(=N/Nc4ccccc4)C(S(=O)(=O)O)=C5)cc3)cc2)c(N)c1` the mutagenic call (Species/Cell Type: Drosophila melanogaster, Assay Type: Sex-linked recessive lethal gene mutation, Assay Code: SRL-, Evaluation Type: Evaluation A (Pre-1980)) was “inactive; negative” and the call [5] was “active; positive”.

— PubChem BioAssay AID1259408 (Genetic Toxicology Data Bank (GENE-TOX), 2018)
